Assay [1] deals with T1, single chain tethered (tandem) HIV protease (HIV-1 M:B_HXB2R, UniProt P04585).
T1 construct: purified enzyme, FITC/biotin substrate assay
In words: Tandem HIV protease assay. The class given is biochemical. As to conditions: read-out: FITC KI; Table II; enzyme HIV1TANDEM. An outline of the steps:
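Covalently tethered single-chain HIV protease dimer allows very low enzyme levels for Ki measurement. N-biotinylated, C-fluorescein-labelled peptide substrate incubated with enzyme and inhibitor at pH 5.5 in the dark for 96 h; streptavidin beads stop reaction, cleaved product filtered off and residual fluorescence fitted to obtain Ki.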

The target in the next assay is HIV-1 protease (Human immunodeficiency virus type 1 group M subtype B, UniProt P04585). In words: biochemical. The method in brief: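 Percent inhibition came from fluorescence of FITC-tagged cleavage product, separated by filtration from uncleaved substrate captured on streptavidin-coated beads. The enzyme (10 μl of 0.1 μM) and compound acted on a biotin/FITC dual-labelled peptide for one hour at room temperature in the dark. The reaction ran in 0.1 M sodium acetate, pH 5.5, with 1.0 M NaCl and 0.05% NP-40.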

[2] abbreviates: Table II, enzyme HIV-1, DOSE 0.123 (unit not given).
Setting [3] is: Table II, enzyme HIV-1, DOSE 0.370 (unit not given).
Setting [4] is: Table II, enzyme HIV-1, DOSE 1.100 (unit not given).
Where [5] appears, read: Table II, enzyme HIV-1, DOSE 3.300 (unit not given).
The mark [6] stands for this setting: Table II, enzyme HIV-1, DOSE 10.000 (unit not given).
Setting [7] is: Table II, enzyme HIV-1, DOSE 30.000 (unit not given).

pKi: −log10 of the molar value. “And” between values parts separate entries of the source, which are not always exact repeats. Identical values can stand only once. Like-named read-outs stand apart in the source and are kept apart here.

For orientation: pKi means the Ki on a negative log10 scale, so that one unit is a factor of ten.

Consider `CCC[C@@]1(CCc2ccc(F)cc2)CC(O)=C([C@@H](c2cccc(NS(=O)(=O)c3ccc(N)cn3)c2)C(C)(C)C)C(=O)O1` (single isomer, unassigned) [Example 316, 5-Amino-N-[3(R or S)-(1-[6(R or S)-(2-[4-fluorophenyl]ethyl)-5,6-dihydro-4-hydroxy-2-oxo-6-propyl-2H-pyran-3-yl]-2,2-dimethyl-propyl)phenyl]-2-pyridine-sulfonamide], for which, in assay [1], the pKi was 9.45. Moreover, the “PROTEASE % INHIB.” value at HIV-1 protease (setting [2]) was found to be 75.49%; on HIV-1 protease (setting [3]), 85.02%; on HIV-1 protease (setting [4]), 100.32%; on HIV-1 protease (setting [5]) it was 95.46%; at HIV-1 protease (setting [6]), 99.71%; on HIV-1 protease (setting [7]) it was 87.91%.

Turning to `CCC[C@@]1(CCc2ccc(F)cc2)CC(O)=C([C@@H](c2cccc(NS(=O)(=O)c3ccc(N)cn3)c2)C(C)(C)C)C(=O)O1` (single isomer, unassigned) [Example 317, 5-Amino-N-[3(R or S)-(1-[6(R or S)-(2-[4-fluorophenyl]ethyl)-5,6-dihydro-4-hydroxy-2-oxo-6-propyl-2H-pyran-3-yl]-2,2-dimethyl-propyl)phenyl]-2-pyridine-sulfonamide], in assay [1], the pKi is 10.40. In addition, the “PROTEASE % INHIB.” value is on record as 87.38% on HIV-1 protease (setting [2]); 94.14% on HIV-1 protease (setting [3]); 98.45% at HIV-1 protease (setting [4]); 95.97% at HIV-1 protease (setting [5]); 101.26% on HIV-1 protease (setting [6]); 108.59% on HIV-1 protease (setting [7]).

Take `CCCC1(CCC)CC(O)=C(C(c2cccc(NS(=O)(=O)c3cn(C)cn3)c2)C(C)(C)C)C(=O)O1` (single isomer, unassigned) [Example 318, N-[3(R or S)-(1-[5,6-Dihydro-6,6-dipropyl-4-hydroxy-2-oxo-2H-pyran-3-yl]-2,2-dimethylpropyl)-phenyl]-1-methyl-1H-imidazole-4-sulfonamide]: the pKi in assay [1] is 10.72. The “PROTEASE % INHIB.” value was 98.06% at HIV-1 protease (setting [2]); 106.35% on HIV-1 protease (setting [3]); 101.88% at HIV-1 protease (setting [4]); 88.73% at HIV-1 protease (setting [5]); 94.49% at HIV-1 protease (setting [6]); 82.83% at HIV-1 protease (setting [7]).

In the case of `CCCC1(CCC)CC(O)=C(C(c2cccc(NS(=O)(=O)c3cn(C)cn3)c2)C(C)(C)C)C(=O)O1` (single isomer, unassigned) [Example 319, N-[3(R or S)-(1-[5,6-Dihydro-6,6-dipropyl-4-hydroxy-2-oxo-2H-pyran-3-yl]-2,2-dimethylpropyl)-phenyl]-1-methyl-1H-imidazole-4-sulfonamide], in assay [1], the pKi was 7.53. The “PROTEASE % INHIB.” value at HIV-1 protease (setting [2]) turned out to be 10.75%; on HIV-1 protease (setting [3]) it was 32.65%; on HIV-1 protease (setting [4]) it was 60.14%; on HIV-1 protease (setting [5]), 75.86%; on HIV-1 protease (setting [6]), 93.46%; at HIV-1 protease (setting [7]), 74.48%.

On to `CCC[C@@]1(CCc2ccccc2)CC(O)=C([C@H](CC)c2cccc(NS(=O)(=O)c3ccc(C#N)cn3)c2)C(=O)O1` (single isomer, unassigned) [Example 335, N-[3-{1(R or S)-(4-Hydroxy-5,6-dihydro-2-oxo-6(R or S)-phenethyl-6-propyl-2H-pyran-3-yl)propyl}phenyl]-5-cyanopyridine-2-sulfonamide], for which, in assay [1], the pKi was 10.40. Moreover, the “PROTEASE % INHIB.” value on HIV-1 protease was 60.07 and 99.75 and 97.05 and 92.06 and 89.77 and 76.25.

Turning to `CCC[C@]1(CCc2ccccc2)CC(O)=C([C@H](CC)c2cccc(NS(=O)(=O)c3ccc(C#N)cn3)c2)C(=O)O1` (single isomer, unassigned) [Example 336, N-[3-{1(R or S)-(4-Hydroxy-5,6-dihydro-2-oxo-6(S or R)-phenethyl-6-propyl-2H-pyran-3-yl)propyl}phenyl]-5-cyanopyridine-2-sulfonamide], the pKi in assay [1] was 10.49. Moreover, on HIV-1 protease, the “PROTEASE % INHIB.” value is 65.64 and 112 and 89.54 and 88.06 and 77.12 and 62.28.

Consider `CCC[C@]1(CCc2ccccc2)CC(O)=C([C@@H](CC)c2cccc(NS(=O)(=O)c3ccc(C#N)cn3)c2)C(=O)O1` (single isomer, unassigned) [Example 338, N-[3-{1(S or R)-(4-Hydroxy-5,6-dihydro-2-oxo-6(S or R)-phenethyl-6-propyl-2H-pyran-3-yl)propyl]phenyl]-5-cyano-pyridine-2-sulfonamide], for which the pKi in assay [1] is 10.00. Moreover, the “PROTEASE % INHIB.” value at HIV-1 protease was 61.74 and 85.32 and 80.46 and 89.62 and 83.53 and 62.34.

On to `CCC[C@@]1(CCc2ccccc2)CC(O)=C([C@H](CC)c2cccc(NS(=O)(=O)c3cn(C)cn3)c2)C(=O)O1` (single isomer, unassigned) [Example 339, N-[3-{1(R or S)-(4-Hydroxy-5,6-dihydro-2-oxo-6(R or S)-phenethyl-6-propyl-2H-pyran-3-yl)propyl}phenyl]-1-methyl-1H-imidazole-4-sulfonamide], for which the pKi in assay [1] is 9.92. The “PROTEASE % INHIB.” value at HIV-1 protease was 83.49 and 100.6 and 101.42 and 104.71 and 91.38 and 72.86.

On to `CCC[C@]1(CCc2ccccc2)CC(O)=C([C@H](CC)c2cccc(NS(=O)(=O)c3cn(C)cn3)c2)C(=O)O1` (single isomer, unassigned) [Example 340, N-[3-{1(R or S)-(4-Hydroxy-5,6-dihydro-2-oxo-6(S or R)-phenethyl-6-propyl-2H-pyran-3-yl)propyl}phenyl]-1-methyl-1H-imidazole-4-sulfonamide], for which the pKi in assay [1] is 10.22. Further, the “PROTEASE % INHIB.” value on HIV-1 protease is 80.58 and 90.49 and 90.16 and 91.57 and 89.49 and 71.99.

As for `CCC[C@]1(CCc2ccccc2)CC(O)=C([C@@H](CC)c2cccc(NS(=O)(=O)c3cn(C)cn3)c2)C(=O)O1` (single isomer, unassigned) [Example 342, N-[3-{1(S or R)-(4-Hydroxy-5,6-dihydro-2-oxo-6(S or R)-phenethyl-6-propyl-2H-pyran-3-yl)propyl}phenyl]-1-methyl-1H-imidazole-4-sulfonamide], the pKi in assay [1] is 9.51. Also, on HIV-1 protease, the “PROTEASE % INHIB.” value was 81.06 and 93.18 and 96.94 and 85.55 and 73.55 and 73.95.

For the compound `CCC[C@@]1(CCc2ccc(F)cc2)CC(O)=C([C@@H](c2cccc(NS(=O)(=O)c3ccc(C#N)cn3)c2)C(C)(C)C)C(=O)O1` (single isomer, unassigned) [Example 345, N-[3-{1(R or S)-(4-Hydroxy-5,6-dihydro-2-oxo-6(R or S)-(2-(4-fluorophenyl)ethyl)-6-propyl-2H-pyran-3-yl)-2,2-dimethyl-propyl}phenyl]-5-cyanopyridine-2-sulfonamide], in assay [1], the pKi is 10.49. In addition, the “PROTEASE % INHIB.” value on HIV-1 protease (setting [2]) came out at 69.19%; on HIV-1 protease (setting [3]), 94.37%; on HIV-1 protease (setting [4]), 101.67%; at HIV-1 protease (setting [5]), 99.08%; on HIV-1 protease (setting [6]), 97.43%; at HIV-1 protease (setting [7]) it was 84.56%.
